Data from patent US8450070B2, “Method for screening of cell-protecting agent” (Takeda Pharmaceutical Company Limited, priority 2007, dated 2013).

Key:
Hsp70 = Hsp70 expression-inducing activity in the presence of IL-1β stimulation (western blotting); assay type: cell-based; settings: human normal articular chondrocytes, 10 ng/ml IL-1β, 2 days; FIG. 3
Method: In an embodiment of the step (2), the heat shock protein expression-inducing activity of a test compound was measured using a cell capable of expressing a heat shock protein. Hsp70 was used as the heat shock protein.
Human normal articular chondrocytes (manufactured by Clonetics Corporation) were grown by monolayer culture in a growth medium for articular chondrocytes (CGM, manufactured by Clonetics Corporation) and then suspended to 2.2×10^4 cells/ml in a 1:1 mixture of Dulbecco's modified Eagle's medium/Ham F12 medium. The cell culture was inoculated into a 12-well plate (manufactured by Asahi Techno Glass Corporation) by 3 ml per each well, followed by incubation at 37° C. for a day under 5% CO2. […]
After completion of the electrophoresis, the proteins in the gel were adsorbed onto a nitrocellulose membrane (Hybond-ECL; manufactured by Amersham Pharmacia Biotech Inc.) using HorizBlot (manufactured by Atto Co.). Each protein level was measured by western blotting using anti-Hsp70 antibody (manufactured by Transduction Laboratories) or anti-β-actin antibody (manufactured by Sigma, Inc.) as a primary antibody and horseradish peroxidase-labeled anti-mouse IgG antibody (manufactured by Kirkegaard & Perry Laboratories) as a secondary antibody. β-Actin was used to verify adsorption of the proteins onto the nitrocellulose membrane.

[1] = test system: human normal articular chondrocytes; assay: Cell protecting activity against NOR3-induced apoptosis (MTT); assay type: cell-based; settings: 10 ng/ml IL-1β, 110 μM NOR3, human normal articular chondrocytes; FIG. 6
Method: First, human normal articular chondrocytes were suspended to 4×10^4 cells/ml in a growth medium for articular chondrocytes. The cell culture was inoculated into a 96-well plate, followed by incubation at 37° C. for a day under 5% CO2. The medium was exchanged to a 1:1 mixture of Dulbecco's modified Eagle's medium/Ham F12 medium. The test compound and 10 ng/ml of […] were added to the medium, followed by further incubation at 37° C. for a day under 5% CO2. Next, 110 μM nitrogen monoxide-releasing reagent, i.e., (±)-(E)-4-ethyl-2-[(E)-hydroximino]-5-nitro-3-hexenamide (NOR3; manufactured by Dojindo) was added and the mixture was incubated for a day to induce apoptosis of the cells. After completion of the incubation, a viability of the cells was determined using 3-(4,5-dimethylthiazol-2-yl)-2,5-diphenyltetrazorium bromide (MTT; manufactured by Dojindo). […] Compound A was verified to have an excellent cell protecting activity.

[2] = test system: human normal articular chondrocytes; assay: Cytotoxicity (cell viability, WST-8); assay type: cell-based; settings: for cell viability (WST-8): 2 days, FIG. 7
Method: First, human normal articular chondrocytes were suspended to 5×10^4 cells/ml in a growth medium for articular chondrocytes. The cell culture was inoculated into a 96-well plate, followed by incubation at 37° C. for a day under 5% CO2. The test compound was added to the medium, followed by incubation at 37° C. for further 2 days under 5% CO2.

His-hHsp90α = biological target: T1, His-hHsp90α (Homo sapiens, UniProt P07900); assay: Inhibition of binding of His-hHsp90α to immobilized Compound B (SDS-PAGE, silver stain); settings: various concentrations of test compound; FIG. 1
T1 construct: the Hsp90α coding region was amplified from a human skeletal complementary DNA (cDNA) library; His tag (N); made in house; host or cells: Escherichia coli BL21 (DE3), plasmid pET28b-hHsp90α
Method: In an embodiment of the step (1) in the screening method of the invention, the steps of measuring and comparing (i) the binding level of an immobilized imidazothiazine derivative to Hsp90 in the absence of a test compound and (ii) the binding level of an immobilized imidazothiazine derivative to Hsp90 in the presence of a test compound, were performed as follows.
Purified human Hsp90α protein (His-hHsp90α) tagged with histidine at the N terminus through using Escherichia coli was employed as Hsp90.
First, 10 μg of His-hHsp90α was reacted with a test compound of various concentrations in 0.2 ml of a binding buffer (10 mM Tris-HCl, pH 7.5, 20% glycerol, 1 mM EDTA, 500 mM NaCl and 1 mM DTT) containing 0.5% DMF for 30 minutes.

His2-hHsp90α protein = biological target: T2, His2-hHsp90α protein (Homo sapiens, UniProt P07900); assay: Inhibition of binding of [3H]-Compound A to immobilized His2-hHsp90α (SPA beads); settings: 40 nM [3H]-Compound A, various concentrations of test compound; FIG. 2
T2 construct: the hHsp90α gene was excised from pET28b-hHsp90α using the BamHI cleavage site and the Bpu1102I cleavage site; made in house; host or cells: Escherichia coli BL21 (DE3), plasmid pET15b-hHsp90α
Method: In another embodiment of the step (1) of the screening method according to the present invention, measuring and comparing (i) the binding level of immobilized Hsp90 to a labeled imidazothiazine derivative in the absence of a test compound and (ii) the binding level of immobilized Hsp90 to a labeled imidazothiazine derivative in the presence of a test compound were performed.
Purified human Hsp90α protein (His2-hHsp90a) tagged with histidine at the N terminus through using Escherichia coli was employed as Hsp90.
The mixture was reacted overnight at 4° C. in a 96-well LumiNunc plate (manufactured by Nunc, Inc.). The above procedure gave immobilized Hsp90 in which the His2-hHsp90α protein was bound to Ysi (2-5 μm) copper his-tag SPA beads via histidine tag.

Hsp90/HSF-1 complex = biological target: T3, Hsp90/HSF-1 complex (Homo sapiens, UniProt P07900); assay: Hsp90/HSF-1 complex disrupting activity (immunoprecipitation from chondrocyte lysate, western blotting); assay type: biochemical; settings: 1 μM compound, 30 minutes, FIG. 4, lane 3
T3 construct: host or cells: human normal articular chondrocytes (lysate)
Method: In another embodiment of the step (2), the activity of a test compound to disrupt the Hsp90/HSF-1 complex was measured. The substance having the activity to disrupt Hsp90/HSF-1 complex is expected to show the heat shock protein expression-inducing activity.
Human normal articular chondrocytes (manufactured by Clonetics) were washed with PBS and dissolved in RIPA buffer solution (50 mM Tris-HCl, pH 8.0, 150 mM NaCl, 1% NP-40, 0.1% SDS and 0.5% deoxycholic acid) containing a proteinase inhibitor (Complete; Boehringer Mannheim). After the solution was centrifuged at 16,000×g for 10 minutes, the supernatant was used as the lysate containing the Hsp90/HSF-1 complex. […]
After completion of the electrophoresis, the proteins in the gel were adsorbed onto a nitrocellulose membrane (Hybond-ECL; manufactured by Amersham Pharmacia Biotech Inc.) using HorizBlot (manufactured by Atto Co.). Each protein level was measured by western blotting using anti-HSF-1 antibody (manufactured by StressGen) or anti-Hsp90 antibody (manufactured by Transduction Laboratories) as a primary antibody and horseradish peroxidase-labeled anti-rabbit IgG antibody (manufactured by Cell Signaling Technology) or horseradish peroxidase-labeled anti-mouse IgG antibody (manufactured by Kirkegasrd & Perry Laboratories) as a secondary antibody.

[3] = test system: Hsp90 client protein such as glucocorticoid receptor, Akt, cyclin dependent kinase 4; assay: Hsp90 client protein degradation-inducing activity (western blotting); assay type: cell-based, human
Method: Human normal articular chondrocytes were suspended to 0.5×10^5 cells/ml in a growth medium for articular chondrocytes. The cell culture was inoculated into a 6-well plate (manufactured by Falcon Co., Ltd.) by 2 ml per each well, followed by incubation at 37° C. for a day under 5% CO2. The medium was exchanged to a 1:1 mixture of Dulbecco's modified Eagle's medium/Ham F12 medium, followed by further incubation at 37° C. for a day under 5% CO2.
The test compound was added to the culture medium and the cells were further incubated for about 18 hours at 37° C. under 5% CO2. After completion of the incubation, the cells were washed once with phosphate-buffered saline (PBS) and 200 μl of a cell lysate buffer (10 mM Tris(hydroxymethyl)aminomethane, pH 7.4, 150 mM NaCl, 1 mM EDTA.2Na, 1 mM EGTA, 0.5 mM (p-aminophenyl)methanesulfonyl fluoride hydrochloride, 200 μM sodium β-glycerophosphate n-hydrate, 20 mM NaF, 2 mM sodium diphosphate decahydrate, 10 μg/ml aprotinin, 10 μg/ml leupeptin, 1% Triton X-100, 0.5% Nonidet P40, 0.1% SDS and 1 mM o-vanadate) was added thereto. After the cell debris was scraped from the plate using a cell scraper, the cell lysate buffer was recovered. The recovered cell lysate buffer was mixed with the equal volume of a sample buffer (Tris-SDS-ME Sample Buffer; manufactured by Daiichi Pure Chemicals). […]

binding level of the His-hHsp90α protein to the immobilized Compound B (His-hHsp90α) | binding level of the His2-hHsp90α protein to [3H]-compound A (His2-hHsp90α protein) | co-precipitation of HSF-1 with Hsp90 (anti-Hsp90 antibody immunoprecipitation) (Hsp90/HSF-1 complex) | SMILES | Hsp70 protein level (Hsp70) | apoptosis / cell viability after NOR3 (MTT) [1] | cell viability (WST-8) ([2]; at concentrations of 30 nM or higher) | intracellular protein level of Hsp90 client protein (glucocorticoid receptor, Akt, cyclin dependent kinase 4) ([3]; human normal articular chondrocytes, about 18 hours, at concentrations of 10 μM or less, FIG. 5) | client protein degradation-inducing activity as compared to GA ([3]; ratio relative to GA) | cell viability (WST-8) ([2]; at concentrations of 10 μM or less) | cytotoxicity relative to that of GA ([2]; ratio relative to GA)
 |  |  | COC1=C2C[C@@H](C)C[C@H](OC)[C@H](O)[C@@H](C)/C=C(\C)[C@H](OC(N)=O)[C@@H](OC)/C=C\C=C(/C)C(=O)NC(=CC1=O)C2=O (relative stereo) [GA, [18S-(4E,5Z,8R*,9R*,10E,12R*,13S*,14R*,16S*)]-9-[(aminocarbonyl)oxy]-13-hydroxy-8,14,19-trimethoxy-4,10,12,16-tetramethyl-2-azabicyclo[16.3.1.]docosa-4,6,10,18,21-pentan-3,20,22-trion, reference compound] | clearly increased | decreased the cell viability | greatly decreased |  |  |  | 
dose-dependently decreased | dose-dependently decreased | not observed | Cc1ccc(S(=O)(=O)/N=c2\[nH]c(=O)n3c(C)c(C)sc(SCCCC(F)(F)C(F)(F)F)c2-3)cc1 [Compound A, N-[(1Z)-5,6-dimethyl-3-oxo-8-[(4,4,5,5,5-pentafluoropentyl)sulfanyl]-2,3-dihydro-1H-imidazo[5,1-c][1,4]thiazin-1-ylidene]-4-methylbenzenesulfonamide] | clearly increased | dose-dependently suppressed the apoptosis |  | did not affect | less than 1/1000 | did not affect | 1/300
